Reference: the NIST ThermoML archive (doi:10.1016/j.fluid.2018.03.018)
± gives the expanded uncertainty stated by the source.

Assay: xn = mol fraction of the nth substance listed
Settings: 101 kPa, Liquid, Vibrating tube method

| mass density (298.15 K, x1 = 0.25) | mass density (303.15 K, x1 = 0.25) | mass density (308.15 K, x1 = 0.25) | mass density (313.15 K, x1 = 0.25) | mass density (318.15 K, x1 = 0.25) | mass density (323.15 K, x1 = 0.25) | SMILES | mass density (293.15 K, x1 = 0.3333) | mass density (298.15 K, x1 = 0.3333) | mass density (303.15 K, x1 = 0.3333) | mass density (308.15 K, x1 = 0.3333) | mass density (313.15 K, x1 = 0.3333) | mass density (318.15 K, x1 = 0.3333) | mass density (323.15 K, x1 = 0.3333) | mass density (328.15 K, x1 = 0.3333) | mass density (333.15 K, x1 = 0.3333) | mass density (338.15 K, x1 = 0.3333) | mass density (343.15 K, x1 = 0.3333) |
| --- | --- | --- | --- | --- | --- | --- | --- | --- | --- | --- | --- | --- | --- | --- | --- | --- | --- |
| 1249.1 ± 1.1 kg/m3 | 1245.7 ± 1.1 kg/m3 | 1242.2 ± 1.1 kg/m3 | 1238.8 ± 1.1 kg/m3 | 1235.4 ± 1.1 kg/m3 | 1231.9 ± 1.1 kg/m3 | C[P+](c1ccccc1)(c1ccccc1)c1ccccc1.[Br-] [methyltriphenylphosphonium bromide] + OCCO | – | – | – | – | – | – | – | – | – | – | – |
| – | – | – | – | – | – | CC[N+](CC)(CC)CC.[Cl-] [tetraethylammonium chloride] + OCCO | 1052.3 ± 1 kg/m3 | 1049.4 ± 1 kg/m3 | 1046.6 ± 1 kg/m3 | 1043.7 ± 1 kg/m3 | 1040.9 ± 1 kg/m3 | 1038.1 ± 1 kg/m3 | 1035.3 ± 1 kg/m3 | 1032.5 ± 1 kg/m3 | 1029.7 ± 1 kg/m3 | 1026.9 ± 1 kg/m3 | 1024.1 ± 1 kg/m3 |
| 1295.8 ± 1.1 kg/m3 | 1292.4 ± 1.1 kg/m3 | 1288.9 ± 1.1 kg/m3 | 1285.3 ± 1.1 kg/m3 | 1281.7 ± 1.1 kg/m3 | 1278.1 ± 1.1 kg/m3 | C[P+](c1ccccc1)(c1ccccc1)c1ccccc1.[Br-] [methyltriphenylphosphonium bromide] + OCC(O)CO | – | – | – | – | – | – | – | – | – | – | – |
| – | – | – | – | – | – | CC[N+](CC)(CC)CC.[Cl-] [tetraethylammonium chloride] + OCC(O)CO | 1124 ± 1 kg/m3 | 1121 ± 1 kg/m3 | 1118.1 ± 1 kg/m3 | 1115.1 ± 1 kg/m3 | 1112.3 ± 1 kg/m3 | 1109.4 ± 1 kg/m3 | 1106.6 ± 1 kg/m3 | 1103.8 ± 1 kg/m3 | 1101 ± 1 kg/m3 | 1098.2 ± 1 kg/m3 | 1095.4 ± 1 kg/m3 |
